The results in this text go back to US9074014B2 (Ipsen Pharma S.A.S., priority 2008, dated 2015).

*1 amine or outer side, *2 acyl side, *3 side chain or, on linkers, in order; H or OH if unused. Where no end group is shown, it is not given here. [ ]: non-standard residue; d: D form. NMeY = CN[C@@H](Cc1ccc(O)cc1)C(=O)O; X2 = O=C([C@@H]1CC(O)CN1[*:1])[*:2]; Pip = O=C(O)[C@@H]1CCCCN1; Ac6c = NC1(C(=O)O)CCCCC1; Nle = CCCC[C@H](N)C(=O)O; Ac5c = NC1(C(=O)O)CCCC1; Aib = CC(C)(N)C(=O)O Some results are limits rather than exact numbers.

Data set [1] can be described thus: Rat plasma half-life assay. The format is in vitro ADME. The following applies: rat plasma, 37° C., LC-MS; read-out: Rat Plasma T½ (converted).
Data set [2] in a line: Human plasma half-life assay. The following applies: human plasma, 37° C., LC-MS; read-out: Human Plasma T½ (converted). The data set is classed as in vitro ADME.

In the case of `CC[C@H](C)[C@H](NC(=O)[C@H](CCCCN)NC(=O)[C@H](CC(=O)O)NC(=O)C1(NC(=O)[C@H](C)NC(=O)[C@@H](NC(=O)C2(NC(=O)[C@H](Cc3ccc(O)cc3)NC(=O)[C@H](CC(=O)O)NC(=O)[C@H](CO)NC(=O)[C@@H](NC(=O)[C@H](Cc3ccccc3)NC(=O)[C@@H](NC(=O)CNC(=O)[C@@H]3CCCCN3C(=O)[C@H](C)NC(=O)[C@@H](N)Cc3ccc(O)cc3)[C@@H](C)O)[C@@H](C)CC)CCCC2)[C@@H](C)CC)CCCCC1)C(=O)N[C@@H](Cc1c[nH]cn1)C(=O)N[C@@H](CCC(N)=O)C(=O)N[C@@H](CCC(N)=O)C(=O)N[C@@H](CC(=O)O)C(=O)N[C@@H](Cc1ccccc1)C(=O)N[C@H](C(=O)N[C@@H](CC(N)=O)C(=O)N[C@@H](Cc1c[nH]c2ccccc12)C(=O)N[C@@H](CC(C)C)C(=O)N[C@@H](CC(C)C)C(=O)N[C@@H](C)C(=O)N[C@@H](CCC(N)=O)C(=O)N[C@@H](CCCCN)C(=O)NCC(=O)N[C@@H](CCCCN)C(=O)N[C@@H](CCCCN)C(=O)N[C@@H](CC(N)=O)C(=O)N[C@@H](CC(=O)O)C(=O)N[C@@H](Cc1c[nH]c2ccccc12)C(=O)N[C@@H](CCCCN)C(=O)N[C@@H](Cc1c[nH]cn1)C(=O)N[C@@H](CC(N)=O)C(=O)N[C@H](C(=O)N[C@H](C(=O)N[C@@H](CCC(N)=O)C(=O)O)[C@@H](C)O)[C@@H](C)CC)C(C)C` [Example 83, (hPro^3, A5c^11, A6c^14)hGIP(1-42)-OH], the half-life at 0.1 mg/ml was 1.1 h in data set [1] and 32.4 h in data set [2].
The like results for “Y[Aib]EGTF[Ac6c]SDYSIA[Nle]DKIHQQDFVNWLLAQKGKKNDWKHNI[Aib]Q-OH [Example 25, (Aib^2, 41, A6c^7, Nle^14)hGIP(1-42)-OH]” were, in that order, 8.4 h and > 48 h.
The like results for `CC[C@H](C)[C@H](NC(=O)[C@H](CO)NC(=O)[C@H](Cc1ccc(O)cc1)NC(=O)[C@H](CC(=O)O)NC(=O)[C@H](CO)NC(=O)[C@@H](NC(=O)[C@H](Cc1ccccc1)NC(=O)[C@@H](NC(=O)C(C)(C)NC(=O)[C@H](CCC(=O)O)NC(=O)C(C)(C)NC(=O)[C@@H](N)Cc1ccc(O)cc1)[C@@H](C)O)[C@@H](C)CC)C(=O)N[C@@H](C)C(=O)N[C@@H](CCSC)C(=O)N[C@@H](CC(=O)O)C(=O)N[C@@H](CCCCN)C(=O)N[C@H](C(=O)N[C@@H](Cc1c[nH]cn1)C(=O)N[C@@H](CCC(N)=O)C(=O)N[C@@H](CCC(N)=O)C(=O)N[C@@H](CC(=O)O)C(=O)N[C@@H](Cc1ccccc1)C(=O)N[C@H](C(=O)N[C@@H](CC(N)=O)C(=O)N[C@@H](Cc1c[nH]c2ccccc12)C(=O)N[C@@H](CC(C)C)C(=O)N[C@@H](CC(C)C)C(=O)N[C@@H](C)C(=O)N[C@@H](CCC(N)=O)C(=O)N[C@@H](CCCCN)C(N)=O)C(C)C)[C@@H](C)CC` [Example 14, (Aib^2, 4)hGIP(1-30)-NH2] were, in that order, 48 h and 34.8 h.
For the molecule “YA[Pip]GTFISDYSI[Aib][Nle]DKIHQQDFVNWLLAQKGKKNDWKHNITQ-OH [Example 63, (hPro^3, Aib^13, Nle^14)hGIP(1-42)-OH]”, the half-life at 0.1 mg/ml was 1.4 h in data set [1] and 14.2 h in data set [2].
As to `CCCC[C@H](NC(=O)C(C)(C)NC(=O)[C@@H](NC(=O)[C@H](CO)NC(=O)[C@H](Cc1ccc(O)cc1)NC(=O)[C@H](CC(=O)O)NC(=O)[C@H](CO)NC(=O)[C@@H](NC(=O)[C@H](Cc1ccccc1)NC(=O)[C@@H](NC(=O)CNC(=O)[C@@H]1C(O)CCN1C(=O)[C@H](C)NC(=O)[C@@H](N)Cc1ccc(O)cc1)[C@@H](C)O)[C@@H](C)CC)[C@@H](C)CC)C(=O)N[C@@H](CC(=O)O)C(=O)N[C@@H](CCCCN)C(=O)N[C@H](C(=O)N[C@@H](Cc1c[nH]cn1)C(=O)N[C@@H](CCC(N)=O)C(=O)N[C@@H](CCC(N)=O)C(=O)N[C@@H](CC(=O)O)C(=O)N[C@@H](Cc1ccccc1)C(=O)N[C@H](C(=O)N[C@@H](CC(N)=O)C(=O)N[C@@H](Cc1c[nH]c2ccccc12)C(=O)N[C@@H](CC(C)C)C(=O)N[C@@H](CC(C)C)C(=O)N[C@@H](C)C(=O)N[C@@H](CCC(N)=O)C(=O)N[C@@H](CCCCN)C(=O)NCC(=O)N[C@@H](CCCCN)C(=O)N[C@@H](CCCCN)C(=O)N[C@@H](CC(N)=O)C(=O)N[C@@H](CC(=O)O)C(=O)N[C@@H](Cc1c[nH]c2ccccc12)C(=O)N[C@@H](CCCCN)C(=O)N[C@@H](Cc1c[nH]cn1)C(=O)N[C@@H](CC(N)=O)C(=O)N[C@H](C(=O)N[C@H](C(=O)N[C@@H](CCC(N)=O)C(=O)O)[C@@H](C)O)[C@@H](C)CC)C(C)C)[C@@H](C)CC` (stereo partly drawn) [Example 70, (3Hyp^3, Aib^13, Nle^14)hGIP(1-42)-OH], the results for the half-life at 0.1 mg/ml in data set [1] and in data set [2] were 1.5 h and > 33 h, respectively.
Consider `CC[C@H](C)[C@H](NC(=O)[C@H](CO)NC(=O)[C@H](Cc1ccc(O)cc1)NC(=O)[C@H](CC(=O)O)NC(=O)[C@H](CO)NC(=O)C(C)(C)NC(=O)[C@H](Cc1ccccc1)NC(=O)[C@@H](NC(=O)CNC(=O)[C@H](CCC(=O)O)NC(=O)C(C)(C)NC(=O)[C@@H](N)Cc1ccc(O)cc1)[C@@H](C)O)C(=O)N[C@@H](C)C(=O)N[C@@H](CCSC)C(=O)N[C@@H](CC(=O)O)C(=O)N[C@@H](CCCCN)C(=O)N[C@H](C(=O)N[C@@H](Cc1c[nH]cn1)C(=O)N[C@@H](CCC(N)=O)C(=O)N[C@@H](CCC(N)=O)C(=O)N[C@@H](CC(=O)O)C(=O)N[C@@H](Cc1ccccc1)C(=O)N[C@H](C(=O)N[C@@H](CC(N)=O)C(=O)N[C@@H](Cc1c[nH]c2ccccc12)C(=O)N[C@@H](CC(C)C)C(=O)N[C@@H](CC(C)C)C(=O)N[C@@H](C)C(=O)N[C@@H](CCC(N)=O)C(=O)N[C@@H](CCCCN)C(N)=O)C(C)C)[C@@H](C)CC` [Example 16, (Aib^2, 7)hGIP(1-30)-NH2], for which the half-life at 0.1 mg/ml in data set [1] was > 48 h; in data set [2], 43.9 h.
For `CC[C@H](C)[C@H](NC(=O)[C@H](CO)NC(=O)[C@H](Cc1ccc(O)cc1)NC(=O)[C@H](CC(=O)O)NC(=O)[C@H](CO)NC(=O)C1(NC(=O)[C@H](Cc2ccccc2)NC(=O)[C@@H](NC(=O)CNC(=O)[C@H](CCC(=O)O)NC(=O)C(C)(C)NC(=O)[C@@H](N)Cc2ccc(O)cc2)[C@@H](C)O)CCCCC1)C(=O)N[C@@H](C)C(=O)N[C@@H](CCSC)C(=O)N[C@@H](CC(=O)O)C(=O)N[C@@H](CCCCN)C(=O)N[C@H](C(=O)N[C@@H](Cc1c[nH]cn1)C(=O)N[C@@H](CCC(N)=O)C(=O)N[C@@H](CCC(N)=O)C(=O)N[C@@H](CC(=O)O)C(=O)N[C@@H](Cc1ccccc1)C(=O)N[C@H](C(=O)N[C@@H](CC(N)=O)C(=O)N[C@@H](Cc1c[nH]c2ccccc12)C(=O)N[C@@H](CC(C)C)C(=O)N[C@@H](CC(C)C)C(=O)N[C@@H](C)C(=O)N[C@@H](CCC(N)=O)C(=O)N[C@@H](CCCCN)C(N)=O)C(C)C)[C@@H](C)CC` [Example 52, (Aib^2, A6c^7)hGIP(1-30)-NH2] the same measures were 28.2 h and 14 h.
As for “Y[Aib]EGTF[Ac6c]SDYSIAMDKIHQQDFVNWLLAQK[Aib]KKNDWKHNITQ-OH [Example 22, (Aib^2, 31, A6c^7)hGIP(1-42)-OH]”, the half-life at 0.1 mg/ml is 14.2 h in data set [1] and > 48 h in data set [2].
Regarding “H-YA[X2]GTFISDY[Ac5c]IAMDKIHQQDFVNWLLAQKGKKNDWKHNITQ-OH [Example 87, (4Hyp^3, A5c^11)hGIP(1-42)-OH]”, the figures for the half-life at 0.1 mg/ml in data set [1] and in data set [2] were 3.4 h and 38.7 h, respectively.
For “H-[NMeY][Aib]EGTFISDY[Ac5c]IA[Nle]DKIHQQDFVNWLLAQKGKKNDWKHNITQ-OH [Example 113, (NMe-Tyr^1, Aib^2, A5c^11, Nle^14)hGIP(1-42)-OH]” the same measures were 27 h and 61.9 h.
The like results for `CC[C@H](C)[C@H](NC(=O)[C@H](CO)NC(=O)[C@H](Cc1ccc(O)cc1)NC(=O)[C@H](CC(=O)O)NC(=O)[C@H](CO)NC(=O)[C@@H](NC(=O)[C@H](Cc1ccccc1)NC(=O)[C@@H](NC(=O)CNC(=O)[C@@H]1Cc2ccccc2CN1C(=O)[C@H](C)NC(=O)[C@@H](N)Cc1ccc(O)cc1)[C@@H](C)O)[C@@H](C)CC)C(=O)N[C@@H](C)C(=O)NC1(C(=O)N[C@@H](CC(=O)O)C(=O)N[C@@H](CCCCN)C(=O)N[C@H](C(=O)N[C@@H](Cc2c[nH]cn2)C(=O)N[C@@H](CCC(N)=O)C(=O)N[C@@H](CCC(N)=O)C(=O)N[C@@H](CC(=O)O)C(=O)N[C@@H](Cc2ccccc2)C(=O)N[C@H](C(=O)N[C@@H](CC(N)=O)C(=O)N[C@@H](Cc2c[nH]c3ccccc23)C(=O)N[C@@H](CC(C)C)C(=O)N[C@@H](CC(C)C)C(=O)N[C@@H](C)C(=O)N[C@@H](CCC(N)=O)C(=O)N[C@@H](CCCCN)C(=O)NCC(=O)N[C@@H](CCCCN)C(=O)N[C@@H](CCCCN)C(=O)N[C@@H](CC(N)=O)C(=O)N[C@@H](CC(=O)O)C(=O)N[C@@H](Cc2c[nH]c3ccccc23)C(=O)N[C@@H](CCCCN)C(=O)N[C@@H](Cc2c[nH]cn2)C(=O)N[C@@H](CC(N)=O)C(=O)N[C@H](C(=O)N[C@H](C(=O)N[C@@H](CCC(N)=O)C(=O)O)[C@@H](C)O)[C@@H](C)CC)C(C)C)[C@@H](C)CC)CCCCC1` [Example 71, (Tic^3, A6c^14)hGIP(1-42)-OH] were, in that order, 4.8 h and > 31 h.
For `CC[C@H](C)[C@H](NC(=O)[C@H](CO)NC(=O)[C@H](Cc1ccc(O)cc1)NC(=O)[C@H](CC(=O)O)NC(=O)[C@H](CO)NC(=O)[C@@H](NC(=O)[C@H](Cc1ccccc1)NC(=O)C(C)(C)NC(=O)CNC(=O)[C@H](CCC(=O)O)NC(=O)C(C)(C)NC(=O)[C@@H](N)Cc1ccc(O)cc1)[C@@H](C)CC)C(=O)N[C@@H](C)C(=O)N[C@@H](CCSC)C(=O)N[C@@H](CC(=O)O)C(=O)N[C@@H](CCCCN)C(=O)N[C@H](C(=O)N[C@@H](Cc1c[nH]cn1)C(=O)N[C@@H](CCC(N)=O)C(=O)N[C@@H](CCC(N)=O)C(=O)N[C@@H](CC(=O)O)C(=O)N[C@@H](Cc1ccccc1)C(=O)N[C@H](C(=O)N[C@@H](CC(N)=O)C(=O)N[C@@H](Cc1c[nH]c2ccccc12)C(=O)N[C@@H](CC(C)C)C(=O)N[C@@H](CC(C)C)C(=O)N[C@@H](C)C(=O)N[C@@H](CCC(N)=O)C(=O)N[C@@H](CCCCN)C(N)=O)C(C)C)[C@@H](C)CC` [Example 15, (Aib^2, 5)hGIP(1-30)-NH2] the same measures were 46.5 h and 28.6 h.
